By IC50 is commonly meant the concentration needed to halve the response being measured.

Each structure is given as a SMILES string. Counter-ions that a name gives are not always drawn.

Data on five molecules can be found in patent publication EP0765868A1, “Substituted bezoyl guanidines, process for their preparation, their use as antiarrhythmics or diagnostic agent as well as pharmaceuticals containing them” (HOECHST AKTIENGESELLSCHAFT, priority 1995, dated 1997).

The test system of one assay is Rattenherzen. The following applies: isolated animal hearts (rat); Eur. Heart J. 9 (suppl.1): 167 (1988); cited from earlier work.
The target of the next assay is T1, Na^+/H^+-Exchanger (Oryctolagus cuniculus, UniProt P23791).
T1 construct: den Na^+-Influx in die Erythrocyten via Na^+/H^+-Austausch flammenphotometrisch bestimmen zu können; from tissue; host or cells: Erythrocytes in whole blood from the ear arteries of cholesterol-fed White New Zealand rabbits
Kind of assay: Inhibition of the Na+/H+ exchanger of rabbit erythrocytes (amiloride-sensitive Na+ influx, flame photometry). The format is cell-based, Kaninchen. The following applies: Kaninchenerythrocyten; hyperosmolar salt-sucrose medium, pH 7,4, 37°C. The text has this:
Inhibition des Na^+/H^+-Exchangers von Kaninchenerythrocyten
Weiße Neuseeland-Kaninchen (Ivanovas) erhielten eine Standard-Diät mit 2% Cholesterin für sechs Wochen, um den Na^+/H^+-Austausch zu aktivieren und so den Na^+-Influx in die Erythrocyten via Na^+/H^+-Austausch flammenphotometrisch bestimmen zu können. Das Blut wurde den Ohrarterien entnommen und durch 25 IE Kalium-Heparin ungerinnbar gemacht. Ein Teil jeder Probe wurde zur Doppelbestimmung des Hämatokrits durch Zentrifugieren benutzt. Aliquots von jeweils 100 µl dienten zur Messung des Na^+-Ausgangsgehalts der Erythrocyten.
Um den Amilorid-sensitiven Natrium-Influx zu bestimmen, wurden 100 µl jeder Blutprobe in jeweils 5 ml eines hyperosmolaren Salz-Sucrose-Mediums (mmol/l: 140 NaCl, 3 KCl, 150 Sucrose, 0,1 Ouabain, 20 Tris-hydroxymethylaminomethan) bei pH 7,4 und 37°C inkubiert. Die Erythrocyten wurden danach dreimal mit eiskalter MgCl2-Ouabain-Lösung (mmol/l: 112 MgCl2, 0,1 Ouabain) gewaschen und in 2,0 ml destilliertem Wasser hämolysiert. Der intrazelluläre Natriumgehalt wurde flammenphotometrisch bestimmt.
Der Na^+-Nettoinflux wurde aus der Differenz zwischen Natrium-Ausgangswerten und dem Natriumgehalt der Erythrocyten nach Inkubation errechnet. Der Amilorid-hemmbare Natrium-Influx ergab sich aus der Differenz des Natriumgehalts der Erythrocyten nach Inkubation mit und ohne Amilorid 3 x 10^-4 mol/l. Auf diese Weise wurde auch bei den erfindungsgemäßen Verbindungen verfahren.

T1 sequence (P23791 whole entry): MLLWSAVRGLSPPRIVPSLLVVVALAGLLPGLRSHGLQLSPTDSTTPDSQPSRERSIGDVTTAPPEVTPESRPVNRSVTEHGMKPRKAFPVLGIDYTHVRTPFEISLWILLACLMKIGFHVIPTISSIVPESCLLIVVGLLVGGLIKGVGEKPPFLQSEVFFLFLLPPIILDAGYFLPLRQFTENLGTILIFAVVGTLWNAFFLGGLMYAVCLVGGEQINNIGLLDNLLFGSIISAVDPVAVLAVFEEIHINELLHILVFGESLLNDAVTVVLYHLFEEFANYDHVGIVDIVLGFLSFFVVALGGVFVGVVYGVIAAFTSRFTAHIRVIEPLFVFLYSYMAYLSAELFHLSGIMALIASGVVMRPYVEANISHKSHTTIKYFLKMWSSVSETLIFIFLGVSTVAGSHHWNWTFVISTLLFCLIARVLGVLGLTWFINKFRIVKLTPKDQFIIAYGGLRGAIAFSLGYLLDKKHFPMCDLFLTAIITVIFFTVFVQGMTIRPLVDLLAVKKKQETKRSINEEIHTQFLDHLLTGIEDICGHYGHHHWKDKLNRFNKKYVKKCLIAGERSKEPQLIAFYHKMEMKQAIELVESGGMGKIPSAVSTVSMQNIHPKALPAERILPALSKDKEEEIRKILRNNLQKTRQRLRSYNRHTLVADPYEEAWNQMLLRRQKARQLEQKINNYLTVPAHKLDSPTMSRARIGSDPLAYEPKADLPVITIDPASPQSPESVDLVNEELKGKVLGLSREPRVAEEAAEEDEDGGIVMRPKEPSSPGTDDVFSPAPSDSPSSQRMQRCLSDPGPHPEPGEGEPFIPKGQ

Turning to `N=C(N)NC(=O)c1nc(Cl)c(N)nc1N` [Amilorid], the “künstlich ausgelöstes Kammerflimmern” value in the assay on Rattenherzen is “völlig unterdrückt”.

As for `NC(N)=NC(=O)c1ccc(C(O)(O)C(F)(F)F)cc1` [Beispiel 1, 4-(1',1'-Bishydroxy-2',2',2'-trifluor)-ethyl-benzoylguanidinhydrochlorid], the IC50 at Na^+/H^+-Exchanger worked out at 1500 nM.

With `CCN(c1nc(N)c(C(=O)NC(=N)N)nc1Cl)C(C)C` [Ethylisopropylamilorid], the “künstlich ausgelöstes Kammerflimmern” value in the assay on Rattenherzen is “Noch potenter als Amilorid”.

`NC(N)=NC(=O)c1ccc(F)c(C(O)(O)C(F)(F)F)c1` [Beispiel 2, 4-Fluor-3-(1',1'-Bishydroxy-2',2',2'-trifluor)ethyl-benzoylguanidinhydrochlorid]: the IC50 at Na^+/H^+-Exchanger is 1000 nM.

Turning to `CC(C)c1ccc(C(=O)N=C(N)N)cc1C(O)(O)C(F)(F)F` [Beispiel 3, 4-Isopropyl-3-(1',1'-bis-hydroxy-2',2',2'-trifluor)-ethylbenzoylguanidin-hydrochlorid], on Na^+/H^+-Exchanger, the IC50 was 300 nM.
